Results from patent US20160033480A1, “Immunovir and Components, Immunovir A, B, C, D Utility and Useful Processes” (priority 2013, published 2016).

Tests used:
[1] = tested on: guinea pig peritoneal derived adherent macrophages (gMφ); assay: Effect on cellular immunity in vitro: gMφ killer cell activity against cRBC with or without cyclophosphamide; type: cell-based; conditions: second 20-hours incubation without CP; FIG. 4-1
From the text: The effector (killer) cells for this experiment were adherent macrophages (gMφ) derived from guinea pig's peritoneal fluid cultured with RTAG (RPMI 1640 enriched with 7.5% v/v guinea pig serum). Cyclophosphamide (CP) was used as an immunosuppressive agent. Chicken red blood cells (cRBC) as target cells.
The experiment consisted of four series of experiments: gMφ+cRBC, gMφ+Imm+cRBC, gMφ+CP+cRBC, and gMφ+CP+Imm+cRBC, and immunovir (Imm) as immune response modifier.
A 200 to 250 g guinea pig was injected with 1 mL of thioglycolate medium, after 20 hours adherent macrophages derived from abdominal cavity (gMφ) were collected by aid of RPMI 1640, suspended in RTAG, then 0.9 mL of solution was pipetted into thirteen Falcon 12-well culture plates. The plates for group 1 and 2 to group 4 were 1 and 3, respectively. […] In other words, each well was filled with 1 ug/mL CP in group 2, 10 ug/mL in group 3, and 100 ug/mL in group 4. After incubation in a 5% CO2 incubator (35-37° C.), the medium in each well was replaced with fresh R7½G from group 1 (only 1 plate for control) to group 4. Then Imm was added from lane 1 to lane 4 (3 wells per lane) that the final concentration were 0, 0.1, 1, and 10 ug/mL, respectively. That was to say, from group 2 to group 4, lane 1 was a CP control, and lane 1 in plate 1 was gMφ control. […]

[2] = tested on: Yac-1 cells; assay: Mononuclear killer cell activity derived from mouse's spleen (51Cr release from Yac-1 cells); type: in vivo, BALB/c mice; conditions: CP 200 and 100 mg/kg day 1 and 2; immunovir 10 mg/kg every day; spleens day 7
Experimental: Twenty male BALB/c mice aged 8 weeks were divided into group A, B, C, and D. Mice in group A were injected with 0.20 mL of normal saline intravenously. […] Group C received immunovir 10 mg/kg.b.w every day. Group D received CP as group B and immunovir as Group C. All mice's spleens were excised at day 7 and spleen-derived mononuclear cells were isolated by Ficol-paque centrifugation.
Yac-1 cells (2×10^6/mL) were labeled with R20C containing 1 uc/mL of ^51Cr-chromate for 60 minutes at 37° C.
Mouse's spleen-derived mononuclear cells (killer cells) (3×10^6) and ^51Cr-chromate-labeled Yac-1 cells (6×10^6) were suspended altogether in 1.0 mL of R20C medium and incubated at 37° C. for 150 minutes, centrifuged with 250 g for 10 minutes, then 0.50 mL of supernatant was taken and dried in the bottle.
Radioactivity was measured by liquid scintillation and toluene-PPO-POPOP was used as a scintillant.

[3] = Bioactivity of separated immunovir components (test not specified)
[4] = tested on: mMφ/Mo; assay: Effect on mice macrophages/mononuclear cells activities in vivo after CP immunosuppression; conditions: immunovirs 10 mg/kg or AZT 20 mg/kg via tail vein day 2 to 5; CP-treated mice; FIG. 5
Experimental: Two mice of each group were injected with 10 mg/kg.b.w of immunovir (O, mixture), immunovir A, B, C, D, or 20 mg/kg.b.w of AZT via tail vein in the afternoon from day 2 to day 5, respectively. Each mouse's abdominal cavity was injected with 0.5 mL of RTAC in the afternoon of day 5, and mMφ/Mo were collected from each mouse's abdominal cavity with 10 mL of R7 1⁄2C in the afternoon of day 6. Basal medium rich in deposit cells were taken, and 0.40 mL was pipetted into two wells of flat-bottomed 24-well Falcon culture dish. After incubation with 5% CO2 for 6 hours, 0.10 mL of cRBC (1%) was added into each well and incubation was carried out for 6 hours or overnight. Then suspended cells, i.e., cRBC, were sucked out, the well was gently washed with 0.5 mL of RPMI 1640, and 0.40 mL of RBMI 1640 and 5 ul of Liu Stain B solution were added again to stain mMφ, whereas cRBCs were unstainable. CP immuno suppression was removed by Immunovir(mix), Immunovir […]. but not AZT in mouse's body, and the efficacy of Mφ/Mo activity increased as shown in FIG. 5.

[5] = tested on: HIV1; assay: Anti-HIV1 activity in human venous blood mononuclear cells (HIV1P24 expression); type: cell-based; conditions: 21 days culture; FIG. 6
Experimental: Mononuclear cells derived from human venous blood (1×10^7 cells/0.80 mL) were suspended in capped Greiner incubation tube with R20C containing 40 ug/mL rIL-2, and 0.10 mL of immunovir (40 ug/mL or diluted with 4 fold) or, as a comparison, AZT (100, 10, or 1 ug/mL), then incubated in 5% CO2 incubator at 36-37° C. for 21 days.
Cells were precipitated by centrifugation (250 g, 5 minutes) every 3 days, and culture medium were replaced to fresh ones with identical ingredients. For antigen expression, cells were stained by mouse anti-HIV1P24 IgG1 and rabbit anti-mouse IgG1-FITC.
The percentage of cells with HIV1P24 gag gene expression, i.e., the ratio of fluorescent cells detected by indirect fluorescent antibody technique was calculated.

[6] = tested on: cRBC; assay: Hemagglutination activity; type: cell-based, chicken; conditions: 0.4% v/v cRBC, room temperature, 2 hours
Experimental: Immunovir A, B, C, and D, or concanavalin A with different concentrations were added into 2 mL of normal saline 0.4% v/v cRBC suspension in Kahn tube. The solution was mixed thoroughly and kept at room temperature for 2 hours to observe hema-agglutination.

O=P1(N(CCCl)CCCl)NCCCO1 (stereo not drawn) [CP, Cyclophosphamide]
activity of gMφ after removal of CP [1]: unrecoverable
radioactivity released (51Cr from Yac-1 cells) [2]: inhibited

CO[C@H]1O[C@H](CO)[C@@H](O)[C@H](O)[C@@H]1O [methyl-a-mannopyranoside]
bioactivity [3]: low bioactivity

Cc1cn([C@H]2C[C@H](N=[N+]=[N-])[C@@H](CO)O2)c(=O)[nH]c1=O [AZT]
removal of CP immuno suppression in mouse's body (Mφ/Mo activity) [4]: not
anti-HIV1 activities compared [5]: approximately the same

concanavalin A
nature of hema-agglutination of cRBC (resuspension by shaking) [6]: firmly agglutinated with concanavalin A and could not be resuspended by shaking
